# Measurements as given in patent US10806790B1, “Pain therapy cream with deep tissue delivery system” (priority 2013, dated 2020).
# Assays:
# [1] = tested on: symptoms of primary osteoarthritis (OA) of the knee; test: 12-week randomized, double-blind, double-dummy, parallel-group comparative study; WOMAC osteoarthritis index (VAS) efficacy; type: in vivo, patients (men and nonpregnant women)
# Method: (§1) The purpose of this study was to compare the safety and efficacy of a topical cream (CellMedics®) containing 0.075% w/w capsaicin and 5% w/w Harpagophytum extract vs. oral diclofenac 50 mg tablets over a 12-week treatment course in relieving the symptoms of primary osteoarthritis (OA) of the knee, in a randomized, double-blind, double-dummy, parallel-group study. Eligible patients included men and nonpregnant women between the ages of 45-75 with symptomatic OA of the knee of at least three months duration. All patients had knee OA as defined by the American College of Rheumatology global functional class I, II, or III. […] Concomitant use of other analgesic medications was prohibited during the study. The protocol was a 12-week, randomized, double-blind, double-dummy, parallel-group comparative study. Patients were assessed at the initial screening visit and those who met the entry criteria discontinued NSAID treatment for a washout period of 3-10 days before the baseline visit. Following the screening and washout periods, each eligible patient attending the baseline visit was assigned a numbered study kit at the clinic. Study kits contained one of 2 randomly assigned treatments: (1) vehicle cream (CellMedics®) containing 0.075% w/w capsaicin and 5% w/w Harpagophytum extract (topical Harpagophytum) plus oral placebo tablet; or (2) diclofenac 50 mg tablet (oral diclofenac) plus a topical placebo cream (vehicle cream with no actives). Patients were instructed to apply a single 3 g measured dose of cream (150 mg of Harpagophytum and 2.25 mg of capsaicin in the active cream) from a metered pump dispenser around the affected knee and take a study tablet orally, 3 times daily for 12 weeks. […] The WOMAC osteoarthritis index, version 3.1 visual analog scale (VAS) was used to assess response to treatment at baseline and after week 12. Patients answered the WOMAC subscales of pain, stiffness, and physical function using a 48 hour recall period. For WOMAC, the VA scales were (best) 0-100 (worst). Safety analyses were conducted on all patients randomized into the trial. At week 12 visits, adverse events (AE) were recorded. The differences between baseline and week 12 were used to analyze changes in WOMAC scores. Statistical significance was assumed at p<0.05. The effect size was calculated by dividing the mean change from baseline with the standard deviation at baseline. Percent improvement was calculated by dividing week 12 change scores by baseline scores.
# [2] = tested on: patients with primary osteoarthritis (OA) of the knee; test: Same 12-week study; safety analysis, incidence of drug-related adverse events
# Method: as §1
# [3] = mean change from baseline divided by the standard deviation at baseline, week 12
# [4] = mean, WOMAC VA scale (best) 0-100 (worst), 12 weeks, 3 times daily, n = 36
# [5] = week 12 change score divided by baseline score
# [6] = both, human, in vivo, po, 12 weeks
structure (smiles),measurement,setting,value
"O=C(O)Cc1ccccc1Nc1c(Cl)cccc1Cl [Oral Diclofenac, diclofenac]","WOMAC Pain, Effect size",[1]; [3],1.04
same,"WOMAC Physical Function, Effect size",[1]; [3],0.99
same,"WOMAC Stiffness, Effect size",[1]; [3],0.90
same,"WOMAC Pain, Baseline - week 12 change score",[1]; [4],−22.87
same,"WOMAC Physical Function, Baseline - week 12 change score",[1]; [4],−21.87
same,"WOMAC Stiffness, Baseline - week 12 change score",[1]; [4],−21.65
same,"WOMAC Pain, % Improvement",[1]; [5],48.77%
same,"WOMAC Physical function, % Improvement",[1]; [5],45.91%
same,"WOMAC Stiffness, % Improvement",[1]; [5],44.86%
same,"Erythema (application site adverse event), number of patients","[2]; 12 weeks, n = 36, oral diclofenac group used placebo cream",One
same,severity of dry skin at application site,[2]; all cases,mild and transient
same,"Abdominal pain (GI adverse event), number of patients","[2]; both, human, in vivo, 12 weeks",8
same,"Constipation (GI adverse event), incidence","[2]; both, human, in vivo, 12 weeks",(8.3%)
same,"Constipation (GI adverse event), number of patients","[2]; both, human, in vivo, 12 weeks",3
same,"Diarrhea (GI adverse event), incidence","[2]; both, human, in vivo, 12 weeks",(16.7%)
same,"Diarrhea (GI adverse event), number of patients","[2]; both, human, in vivo, 12 weeks",6
same,"Dyspepsia (GI adverse event), incidence","[2]; both, human, in vivo, 12 weeks",(25.0%)
same,"Dyspepsia (GI adverse event), number of patients","[2]; both, human, in vivo, 12 weeks",9
same,"Edema (other adverse event), number of patients","[2]; both, human, in vivo, 12 weeks",3
same,"Flatulence (GI adverse event), incidence","[2]; both, human, in vivo, 12 weeks",(16.7%)
same,"Flatulence (GI adverse event), number of patients","[2]; both, human, in vivo, 12 weeks",6
same,"Headache (other adverse event), number of patients","[2]; both, human, in vivo, 12 weeks",2
same,"Nausea (GI adverse event), incidence","[2]; both, human, in vivo, 12 weeks",(11.1%)
same,"Nausea (GI adverse event), number of patients","[2]; both, human, in vivo, 12 weeks",4
same,time to resolution of mild redness (erythema),"[2]; both, human, in vivo, 12 weeks",≤ 24 h
same,"Blisters (application site adverse event), incidence",[2]; [6],(0.0%)
same,"Blisters (application site adverse event), number of patients",[2]; [6],0
same,"Dry Skin (application site adverse event), number of patients",[2]; [6],1
same,"Erythema (application site adverse event), number of patients",[2]; [6],1
same,"Pruritis (application site adverse event), incidence",[2]; [6],(0.0%)
same,"Pruritis (application site adverse event), number of patients",[2]; [6],0
